“Also recorded” adds a separate entry of the source.
Tests used:
Assay type in all cases: in vivo, mouse (C57BL/6N)
[1] = system: mouse HFpEF model; test: Echocardiography and Doppler imaging (systolic and diastolic function) in HFpEF model mice (HFD+L-NAME); conditions: male mice
Excerpt: (§1) Male C57BL/6N wild-type mice aged 8 to 10 weeks were divided into three groups, namely, normal group (normal diet and drinking water), model control group (high-fat diet combined with administration of N-nitro-L-arginine methyl ester) and model treatment group (high-fat diet combined with administration of N-nitro-L-arginine methyl ester and treatment with T-5224). Among them, the model control group and the model treatment group were modeled by the following literature: Gabriele G. Schiattarella et al., Nitrosative stress drives heart failure with preserved ejection fraction, https://doi.org/10.1038/s41586-019-1100-z. Specifically, heart failure with preserved ejection fraction was induced by a high-fat diet (HFD) (60% kcal, from fat (lard)) and N-nitro-L-arginine methyl ester (abbreviated as L-NAME, 0.5 g/L in drinking water) to obtain the HFpEF animal model. […]
All the mice were raised under different conditions for five weeks and then began to undergo conventional echocardiography and Doppler imaging, which was performed every two weeks until the end of the 15th week. […] All parameters were measured at least 3 times, and the mean values were provided. […]

[2] = Changes in body weight / obesity of HFpEF model mice with different treatments; conditions: HFD+L-NAME mice treated with T-5224 (total dose 250 mg/kg); FIG. 3C
Excerpt: Male C57BL/6N wild-type mice aged 8 to 10 weeks were divided into three groups, namely, normal group (normal diet and drinking water), model control group (high-fat diet combined with administration of N-nitro-L-arginine methyl ester) and model treatment group (high-fat diet combined with administration of N-nitro-L-arginine methyl ester and treatment with T-5224). Among them, the model control group and the model treatment group were modeled by the following literature: Gabriele G. Schiattarella et al., Nitrosative stress drives heart failure with preserved ejection fraction, https://doi.org/10.1038/s41586-019-1100-z. Specifically, heart failure with preserved ejection fraction was induced by a high-fat diet (HFD) (60% kcal, from fat (lard)) and N-nitro-L-arginine methyl ester (abbreviated as L-NAME, 0.5 g/L in drinking water) to obtain the HFpEF animal model.
After the animal model was obtained, that was, from the 5′ week of inducing the HFpEF model, the model treatment group was treated with T-5224, the model control group was treated with a solvent without drug, and the mice with normal diet and drinking water during the whole induction process were used as negative control. The mice were administrated with drugs when they were raised for 5 weeks. For the treatment group, T-5224 was administered at 250 mg/kg according to the body weight of mice. […]

[3] = system: Jun; test: Quantitative PCR detection of Jun expression in cardiomyocytes of HFpEF model mice; conditions: HFD+L-NAME mice treated with T-5224, compared with the model control group; qPCR, b-Actin standardized; FIG. 3D
Excerpt: as §1, with “https://doi.org/10.1038/s41586-019-1100-z.” for “https://doi.org/10.1038/s41586-019-1100-z. Specifically, heart failure with preserved ejection fraction was induced by a high-fat diet (HFD) (60% kcal, from fat (lard)) and N-nitro-L-arginine methyl ester (abbreviated as L-NAME, 0.5 g/L in drinking water) to obtain the HFpEF animal model.”
In the 15th week of model induction, the cardiomyocytes of normal group and the model control group were isolated by perfusion method, and quantitative RCR detection was performed. […]
Total RNA was extracted from cells using GeneJet RNA purification kit (Thermo Scientific, K0732), and […] of total RNA was reverse transcribed using iScript TM cDNA synthesis kit (Bio-Rad, 1708890) to generate cDNA. qPCR was performed using iTaqUniversl SYBR Green supermix (1725121, Bio-Rad) on ABI Vii7 real-time system (Life Technologies, Q6), and b-Actin was used for standardized quantitative analysis. […]

## O=C(O)CCc1cc(C(=O)c2ccc(OC3CCCC3)cc2O)ccc1OCc1ccc2c(O)noc2c1 [T-5224]
[1]; HFD+0.5 g/L L-NAME, T-5224 0.8 mg in 200 μL 1% PVP every other day, 5th to 13th week, total dose 250 mg/kg, followed to 15th week, FIG. 3B
  diastolic function (E/E′): significantly improved and could be maintained until the 15th week
[1]; HFD+L-NAME, cardiac function detection after T-5224 administration (from 5th week, total dose 250 mg/kg), FIG. 3A-B, 250 mg/kg
  occurrence and development of HFpEF: effectively alleviate the occurrence and development of HFpEF; also recorded: well suppressed
[2]
  mouse obesity (changes in body weight): improved
[3]
  expression of Jun in cardiomyocytes: down-regulated compared with the model control group
